Measured values: patent publication US9539298B2, “Lissencephaly therapeutic agent” (OSAKA CITY UNIVERSITY, priority 2010, dated 2017)

melting point [°C] | SMILES
108.8 to 109.9 | CCCNC(=O)C(=O)[C@H](Cc1ccccc1)NC(=O)[C@H](CC(C)C)NC(=O)OCCOC [compound 7, ((1S)-1-((((1S)-1-Benzyl-2,3-dioxo-3-(propylamino)propyl)amino)carbonyl)-3-methylbutyl)carbamic acid 2-methoxyethyl ester]
169.2 to 170.5 | CC(C)C[C@H](NC(=O)O[C@H]1CCOC1)C(=O)N[C@@H](Cc1ccccc1)C(=O)C(=O)NC1CC1 [compound 5, ((1S)-1-((((1S)-1-Benzyl-3-(cyclopropylamino)-2,3-dioxopropyl)amino)carbonyl)-3-methylbutyl)carbamic acid (3S)-tetrahydrofuran-3-yl ester]
115.8 to 116.2 | CC(C)C[C@H](NC(=O)O[C@H]1CCOC1)C(=O)N[C@@H](CCc1ccccc1)C(=O)C(=O)NC1CC1 [compound 16]
140 to 141.8 | CCNC(=O)C(=O)[C@H](Cc1ccccc1)NC(=O)[C@H](CC(C)C)NC(=O)OC1CCOCC1 [compound 3, ((1S)-1-((((1S)-1-Benzyl-2,3-dioxo-3-(ethylamino)propyl)amino)carbonyl)-3-methylbutyl)carbamic acid tetrahydro-4H-pyran-4-yl ester]
109.7 to 111.1 | COCCOC(=O)N[C@@H](CC(C)C)C(=O)N[C@@H](CCc1ccccc1)C(=O)C(=O)NC1CC1 [compound 15, ((1S)-1-((((1S)-2,3-Dioxo-3-cyclopropylamino-1-(phenylethyl)propyl)amino)carbonyl)-3-methylbutyl)carbamic acid 2-methoxyethyl ester]
111.9 to 114.5 | CCNC(=O)C(=O)[C@H](CCc1ccccc1)NC(=O)[C@H](CC(C)C)NC(=O)O[C@H]1CCOC1 [compound 14, ((1S)-1-((((1S)-2,3-Dioxo-3-ethylamino-1-(phenylethyl)propyl)amino)carbonyl)-3-methylbutyl)carbamic acid (3S)-tetrahydrofuran-3-yl ester]
152.5 to 153.9 | COCCOC(=O)N[C@@H](CC(C)C)C(=O)N[C@@H](Cc1ccccc1)C(=O)C(=O)NCC(F)(F)F [compound 10, ((1S)-1-((((1S)-1-Benzyl-2,3-dioxo-3-(2,2,2-trifluoroethylamino)propyl)amino)carbonyl)-3-methylbutyl)carbamic acid 2-methoxyethyl ester]
119.1 to 120.4 | CCNC(=O)C(=O)[C@H](CCc1ccccc1)NC(=O)[C@H](CC(C)C)NC(=O)OCCOC [compound 13, ((1S)-1-((((1S)-2,3-Dioxo-3-ethylamino-1-(phenylethyl)propyl)amino)carbonyl)-3-methylbutyl)carbamic acid 2-methoxyethyl ester]
94 to 95.2 | CCCCNC(=O)C(=O)[C@H](Cc1ccccc1)NC(=O)[C@H](CC(C)C)NC(=O)OCCOC [compound 9, ((1S)-1-((((1S)-1-Benzyl-3-butylamino-2,3-dioxopropyl)amino)carbonyl)-3-methylbutyl)carbamic acid 2-methoxyethyl ester]
141.9 to 143.5 | COCCOC(=O)N[C@@H](CC(C)C)C(=O)N[C@@H](Cc1ccccc1)C(=O)C(=O)NC1Cc2ccccc2C1 [compound 11, ((1S)-1-((((1S)-1-Benzyl-2,3-dioxo-3-(2-indanylamino)propyl)amino)carbonyl)-3-methylbutyl)carbamic acid 2-methoxyethyl ester]
99.7 to 100.5 | COCCOC(=O)N[C@@H](CC(C)C)C(=O)N[C@@H](CC(C)C)C(=O)C(=O)NCCOc1ccccc1 [compound 21, ((1S)-1-((((1S)-2,3-Dioxo-1-(2-methylpropyl)-3-(2-phenoxyethyl)aminopropyl)amino)carbonyl)-3-methylbutyl)carbamic acid 2-methoxyethyl ester]
127 to 127.9 | COCCNC(=O)C(=O)[C@H](Cc1ccccc1)NC(=O)[C@H](CC(C)C)NC(=O)OCCOC [compound 12, ((1S)-1-((((1S)-1-Benzyl-2,3-dioxo-3-(2-methoxyethylamino)propyl)amino)carbonyl)-3-methylbutyl)carbamic acid 2-methoxyethyl ester]
